Columns and labels:
CYP2C19 = CYP2C19 (Homo sapiens, UniProt P33261); experiment: CYP2C19 inhibition, S-mephenytoin probe in human liver microsomes; details: human, human liver microsomes, pH 7.4, probe S-mephenytoin 50 μM, Residual activity (%) CYP2C19, HLM 0.5 mg/mL, S-mephenytoin 50 μM, 30 min
Protocol: (§1) The total volume of the in vitro metabolic incubation system is 200 μL. The probe substrate concentration in the system is shown in Supplementary Table S1. […] The reaction sample was preheated in a constant temperature mixer at 37°C. Then NADP^+ was added to the system to initiate the reaction. The reaction time is 30 min, and 100 μL acetonitrile will be added on time to quickly terminate the reaction, followed by centrifugation at 4°C and 20,000 g for 20 min. The supernatant was analyzed using liquid chromatography tandem mass spectrometry (LC-MS/MS), and the activity of CYP enzymes was evaluated by the generation of probe metabolites. The mass spectrometry information of probe substrates is shown in Supplementary Table S3.
(§2) The isolated triterpenoids (1–66) were used to establish a compounds library. The inhibitory effects of 66 triterpenoids from G. lucidum on seven subtypes of CYP enzymes (CYP1A2, 2A6, 2D6, 2B6, 2C9, 2C19, 3A4) were evaluated followed the above-mentioned experimental procedures.
(§3) Table S1. The information of probes for CYPs activity assay

CYP2D6 = CYP2D6 (Homo sapiens, UniProt P10635); experiment: CYP2D6 inhibition, dextromethorphan probe in human liver microsomes; details: human, human liver microsomes, pH 7.4, probe dextromethorphan 5 μM, Residual activity (%) CYP2D6, HLM 0.5 mg/mL
Chain of CYP2D6 (P10635 whole entry): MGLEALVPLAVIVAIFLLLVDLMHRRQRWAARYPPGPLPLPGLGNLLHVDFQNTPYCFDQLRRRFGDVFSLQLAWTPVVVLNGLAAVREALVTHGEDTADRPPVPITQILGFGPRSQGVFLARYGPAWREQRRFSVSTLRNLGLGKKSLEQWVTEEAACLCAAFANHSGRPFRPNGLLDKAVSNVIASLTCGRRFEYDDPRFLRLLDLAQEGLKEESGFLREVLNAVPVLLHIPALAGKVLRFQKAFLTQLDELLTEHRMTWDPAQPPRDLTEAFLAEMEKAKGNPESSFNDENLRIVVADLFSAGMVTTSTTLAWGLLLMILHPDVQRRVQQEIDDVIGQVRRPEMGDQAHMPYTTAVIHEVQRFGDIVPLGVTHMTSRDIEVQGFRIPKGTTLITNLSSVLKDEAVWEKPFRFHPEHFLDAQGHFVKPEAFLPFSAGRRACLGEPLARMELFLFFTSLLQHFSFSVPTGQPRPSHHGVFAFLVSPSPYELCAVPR
Protocol: as §1, §2, §3

CYP1A2 = target: T1, CYP1A2 (Homo sapiens, UniProt P05177); experiment: CYP1A2 inhibition, probe/drug metabolism in human liver microsomes (LC-MS/MS); details: for activity at 30 min: Residual activity (%) CYP1A2, HLM 0.5 mg/mL
T1 sequence (P05177 1-516): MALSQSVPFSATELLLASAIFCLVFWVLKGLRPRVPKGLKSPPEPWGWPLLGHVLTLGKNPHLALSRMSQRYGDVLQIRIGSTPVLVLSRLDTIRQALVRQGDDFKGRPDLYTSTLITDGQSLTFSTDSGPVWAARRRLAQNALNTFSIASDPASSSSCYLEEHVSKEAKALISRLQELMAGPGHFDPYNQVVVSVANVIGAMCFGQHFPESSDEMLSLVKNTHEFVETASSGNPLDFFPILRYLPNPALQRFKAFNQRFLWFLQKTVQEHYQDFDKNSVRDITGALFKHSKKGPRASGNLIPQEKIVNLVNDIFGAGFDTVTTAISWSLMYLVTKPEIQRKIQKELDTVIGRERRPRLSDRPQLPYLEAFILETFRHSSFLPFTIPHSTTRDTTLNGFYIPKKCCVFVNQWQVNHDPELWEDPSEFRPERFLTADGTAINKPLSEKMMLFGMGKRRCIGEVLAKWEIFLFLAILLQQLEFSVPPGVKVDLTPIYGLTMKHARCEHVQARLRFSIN
Protocol: as §1, §2
(§4) For 16 clinical drugs metabolized by CYP enzymes, potential DDI studies were conducted on triterpenoids (6, 25) of G. lucidum, and IC50 values were measured.
(§5) Clinical drugs: Phenacetin, melatonin, clozapine and riluzole are metabolized by CYP1A2. Bupropion, artemisinin, efavirenz and sertraline are metabolized by CYP2B6. Diclofenac, valsartan, glimepiride and glibenclamide are metabolized by CYP2C9. Midazolam, imatinib, simvastatin and diltiazem are metabolized by CYP3A4.
as §3
(§6) Table S2. Information of clinical drugs

CYP2B6 = target: T2, CYP2B6 (Homo sapiens, UniProt P20813); experiment: CYP2B6 inhibition, probe/drug metabolism in human liver microsomes; details: human, human liver microsomes, pH 7.4, probe bupropion 75 μM, Residual activity (%) CYP2B6, HLM 0.5 mg/mL, bupropion 75 μM, 30 min
T2 sequence (P20813 1-491): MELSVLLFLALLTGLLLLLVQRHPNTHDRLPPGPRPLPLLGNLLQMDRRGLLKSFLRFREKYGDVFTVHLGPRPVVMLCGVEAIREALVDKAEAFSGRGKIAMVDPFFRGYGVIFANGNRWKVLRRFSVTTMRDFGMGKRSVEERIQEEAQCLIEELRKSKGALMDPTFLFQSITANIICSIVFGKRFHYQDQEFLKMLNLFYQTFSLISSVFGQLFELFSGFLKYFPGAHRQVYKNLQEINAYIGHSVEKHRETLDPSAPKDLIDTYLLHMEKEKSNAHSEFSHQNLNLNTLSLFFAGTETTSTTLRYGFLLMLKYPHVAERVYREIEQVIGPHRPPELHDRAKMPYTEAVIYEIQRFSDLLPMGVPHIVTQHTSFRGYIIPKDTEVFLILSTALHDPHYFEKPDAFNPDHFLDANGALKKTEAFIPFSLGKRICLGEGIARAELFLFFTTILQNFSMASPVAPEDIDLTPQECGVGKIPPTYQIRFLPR
Protocol: as §1, §2, §4, §5, §3, §6

CYP3A4 = CYP3A4 (Homo sapiens, UniProt P08684); experiment: CYP3A4 inhibition, probe/drug metabolism in human liver microsomes; details: human, human liver microsomes, pH 7.4, probe midazolam 5 μM, Residual activity (%) CYP3A4, HLM 0.5 mg/mL, midazolam 5 μM, 30 min
Chain of CYP3A4 (P08684 whole entry): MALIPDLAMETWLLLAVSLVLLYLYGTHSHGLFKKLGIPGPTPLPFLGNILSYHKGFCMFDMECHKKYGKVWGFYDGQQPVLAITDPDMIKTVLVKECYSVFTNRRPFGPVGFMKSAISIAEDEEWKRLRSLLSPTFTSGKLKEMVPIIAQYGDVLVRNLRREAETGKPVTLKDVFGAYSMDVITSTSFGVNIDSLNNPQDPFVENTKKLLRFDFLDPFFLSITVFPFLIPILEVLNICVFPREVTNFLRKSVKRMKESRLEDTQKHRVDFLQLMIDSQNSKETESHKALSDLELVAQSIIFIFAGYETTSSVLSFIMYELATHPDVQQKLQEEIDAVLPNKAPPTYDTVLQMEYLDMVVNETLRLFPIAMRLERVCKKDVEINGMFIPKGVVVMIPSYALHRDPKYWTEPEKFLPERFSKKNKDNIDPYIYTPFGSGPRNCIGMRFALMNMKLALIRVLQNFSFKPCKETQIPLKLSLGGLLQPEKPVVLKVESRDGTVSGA
Protocol: as §1, §2, §4, §5, §3, §6

CYP2A6 = target: T3, CYP2A6 (Homo sapiens, UniProt P11509); experiment: CYP2A6 inhibition, coumarin probe in human liver microsomes; details: human, human liver microsomes, pH 7.4, probe coumarin 2 μM, Residual activity (%) CYP2A6, HLM 0.5 mg/mL
T3 sequence (P11509 1-494): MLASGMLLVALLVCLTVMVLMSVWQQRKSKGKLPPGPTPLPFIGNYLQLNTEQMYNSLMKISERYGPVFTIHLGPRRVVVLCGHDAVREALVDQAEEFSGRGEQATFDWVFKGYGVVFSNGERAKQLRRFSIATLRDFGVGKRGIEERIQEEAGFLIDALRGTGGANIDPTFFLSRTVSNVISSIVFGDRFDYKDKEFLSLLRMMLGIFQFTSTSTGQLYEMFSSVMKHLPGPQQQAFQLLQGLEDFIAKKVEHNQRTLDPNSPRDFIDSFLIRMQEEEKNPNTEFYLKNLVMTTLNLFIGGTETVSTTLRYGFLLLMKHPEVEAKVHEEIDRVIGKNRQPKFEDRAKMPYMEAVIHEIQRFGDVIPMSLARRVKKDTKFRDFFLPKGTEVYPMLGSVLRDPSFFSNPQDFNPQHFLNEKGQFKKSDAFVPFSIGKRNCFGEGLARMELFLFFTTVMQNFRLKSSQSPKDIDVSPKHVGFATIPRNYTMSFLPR
Protocol: as §1, §2, §3

CYP2C9 = CYP2C9 (Homo sapiens, UniProt P11712); experiment: CYP2C9 inhibition, probe/drug metabolism in human liver microsomes; details: human, human liver microsomes, pH 7.4, probe diclofenac 4 μM, Residual activity (%) CYP2C9, HLM 0.5 mg/mL, diclofenac 4 μM, 30 min
Chain of CYP2C9 (P11712 whole entry): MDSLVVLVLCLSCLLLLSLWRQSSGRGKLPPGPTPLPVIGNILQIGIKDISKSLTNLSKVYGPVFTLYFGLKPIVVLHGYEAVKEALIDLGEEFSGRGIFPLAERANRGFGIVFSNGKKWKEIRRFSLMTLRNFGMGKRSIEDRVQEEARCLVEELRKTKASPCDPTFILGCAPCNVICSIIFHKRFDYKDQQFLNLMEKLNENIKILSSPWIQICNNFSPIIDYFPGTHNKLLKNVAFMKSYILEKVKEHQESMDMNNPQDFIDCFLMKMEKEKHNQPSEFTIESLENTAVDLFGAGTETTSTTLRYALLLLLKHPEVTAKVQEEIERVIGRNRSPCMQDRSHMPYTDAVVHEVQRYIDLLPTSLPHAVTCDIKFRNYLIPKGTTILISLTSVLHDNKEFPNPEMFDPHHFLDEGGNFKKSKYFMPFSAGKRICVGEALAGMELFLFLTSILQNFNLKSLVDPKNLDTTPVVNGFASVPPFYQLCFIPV
Protocol: as §1, §2, §4, §5, §3, §6

[1] = IC50 against CYP 1A2, substrate phenacetin 40 μM, HLM
[2] = human, human liver microsomes, pH 7.4, probe phenacetin 40 μM, phenacetin 40 μM, 30 min

Chain of CYP2C19 (P33261 whole entry): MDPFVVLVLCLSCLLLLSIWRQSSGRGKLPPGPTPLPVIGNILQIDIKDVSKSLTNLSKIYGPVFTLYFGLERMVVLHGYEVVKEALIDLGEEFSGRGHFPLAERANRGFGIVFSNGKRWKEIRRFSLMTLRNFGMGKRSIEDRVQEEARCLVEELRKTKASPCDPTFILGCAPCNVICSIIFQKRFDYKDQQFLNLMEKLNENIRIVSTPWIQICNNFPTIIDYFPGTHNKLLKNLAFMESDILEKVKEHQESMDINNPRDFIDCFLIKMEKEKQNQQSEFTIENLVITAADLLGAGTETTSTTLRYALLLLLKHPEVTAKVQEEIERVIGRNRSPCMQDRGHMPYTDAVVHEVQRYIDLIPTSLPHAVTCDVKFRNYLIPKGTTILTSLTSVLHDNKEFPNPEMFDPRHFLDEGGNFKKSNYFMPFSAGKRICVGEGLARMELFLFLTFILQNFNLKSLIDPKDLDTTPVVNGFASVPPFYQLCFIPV

SMILES	activity at 30 min (CYP2C19) [%]	activity at 30 min (CYP2D6) [%]	IC50 (CYP1A2; [1]) [µM]	activity at 30 min (CYP1A2; [2]) [%]	activity at 30 min (CYP2B6) [%]	activity at 30 min (CYP3A4) [%]	activity at 30 min (CYP2A6) [%]	activity at 30 min (CYP2C9) [%]	IC50 (CYP1A2; IC50 against metabolism of clozapine mediated by CYP1A2, substrate clozapine 10 μM, 20 min) [µM]	IC50 (CYP1A2; IC50 against metabolism of melatonin mediated by CYP1A2, substrate melatonin 5 μM, 30 min) [µM]	IC50 (CYP1A2; IC50 against metabolism of riluzole mediated by CYP1A2, substrate riluzole 5 μM, 60 min) [µM]	IC50 (CYP1A2; IC50 values, metabolism of four drugs mediated by CYP 1A2, range over phenacetin, riluzole, clozapine, melatonin) [µM]	Residual activity (%) CYP1A2 (CYP1A2; HLM 0.5 mg/mL, phenacetin 40 μM, 30 min) [%]	IC50 at 30 min (CYP1A2; human, human liver microsomes, pH 7.4, probe phenacetin 40 μM, IC50 against CYP 1A2, substrate phenacetin 40 μM, HLM) [µM]
CC(CC(=O)CC(C)C1CC(O)C2(C)C3=C(C(=O)CC12C)C1(C)CCC(O)C(C)(CO)C1CC3=O)C(=O)O (stereo not drawn) [Compound 4]	57.82 ± 0.056	76.9 ± 6.89	11.6 ± 1.02	29.1 ± 0.38	97.5 ± 4.16	67.6 ± 2.68	81.24 ± 0.65	86.6 ± 1.3						
CC(=CC(=O)CC(C)C(=O)O)C1CC(=O)C2(C)C3=C(C(=O)C(O)C12C)C1(C)CCC(=O)C(C)(CO)C1CC3O (stereo not drawn) [Compound 6, ganoderica F]	58.5 ± 8.25	66.7 ± 6.29	9.62 ± 2.03	28 ± 1.5	84.6 ± 5.76	72.57 ± 0.19	75.3 ± 1.29	90.5 ± 3.9	12.9 ± 1.11	19 ± 1.68	14.8 ± 2.15	9.62 to 19		
CC(=O)OC1C(=O)C2=C(C(O)CC3C2(C)CCC(O)C3(C)C)C2(C)C(=O)CC(C(C)=CC(=O)CC(C)C(=O)O)C12C (stereo not drawn) [Compound 7]	74.81 ± 0.08	104 ± 4.79	12.8 ± 1.47	32.5 ± 1	90.6 ± 2.12	94.6 ± 1.15	88.05 ± 0.74	90 ± 1.41						
CC(CC(=O)CC(C)C1CC(=O)C2(C)C3=C(C(=O)CC12C)C1(C)CCC(=O)C(C)(CO)C1CC3O)C(=O)O (stereo not drawn) [Compound 8]	68.6 ± 7.25	76.9 ± 0.9	11.3 ± 0.31	30.2 ± 3.05	91.6 ± 8.64	90.8 ± 3.82	79.1 ± 0.81	94.8 ± 5.64						
CC(=O)OC1C(=O)C2=C(C(=O)CC3C(C)(C)C(=O)CCC23C)C2(C)C(=O)CC(C(C)CC(=O)CC(C)C(=O)O)C12C (stereo not drawn) [Compound 9]	105 ± 6.46	94 ± 5.67			94.3 ± 1.83	93.7 ± 4.04	91.5 ± 2.1	77 ± 5.67					89.44±0.96	
CC(=CC(=O)CC(C)C(=O)O)C1CC(=O)C2(C)C3=C(C(=O)C(O)C12C)C1(C)CCC(O)C(C)(C)C1CC3=O (stereo not drawn) [Compound 17]	85.5 ± 2.57	99.4 ± 3.9	21.8 ± 1.15	54.4 ± 8.91	76.6 ± 7.68	97.6 ± 2.29	91.89 ± 0.88	90 ± 1.36						
CC(=O)OC1C(=O)C2=C(C(=O)CC3C(C)(C)C(=O)CCC23C)C2(C)C(=O)CC(C(C)CC(O)C=C(C)C(=O)O)C12C (stereo not drawn) [Compound 31]	94.8 ± 4.46	103 ± 3.3		53.7 ± 1.44	71.2 ± 4.24	104 ± 1.72	86.17 ± 0.44	80.99 ± 0.51						29 ± 6.91
CC1(C)CCC2(C(=O)O)CCC3(C)C(=C2C1)C=CC1C2(C)CCC(O)C(C)(C)C2CCC13C (stereo not drawn) [Compound 36]	84.38 ± 0.53	72.7 ± 10.4		81.9 ± 5.81	88.6 ± 6.9	55.4 ± 1.19	87 ± 1.46	82.9 ± 2.75						
CC1(C)CCC2(C(=O)O)CCC3(C)C(=CC(=O)C4C5(C)CCC(O)C(C)(C)C5CCC43C)C2C1 (stereo not drawn) [Compound 37]	97.6 ± 4.86	104 ± 3.22		88 ± 3.49	94.3 ± 3.45	60.1 ± 3.57	104 ± 1.4	94.8 ± 3.33						
CC(CC(=O)CC(C)C1CC(O)C2(C)C3=C(C(=O)CC12C)C1(C)CCC(=O)C(C)(C)C1CC3)C(=O)O (stereo not drawn) [Compound 42]	79.3 ± 0.38	103 ± 3.3	21.4 ± 5.21	43.8 ± 4.18	89.1 ± 3.71	96.8 ± 4.2	83.7 ± 8.67	62.8 ± 2.72						
